Tests used:
Test in all cases: relative viability (nuclei count vs DMSO), 5 days (fraction); higher = more cells survive
AZ3146 + Decitabine = compound: CN1CCC(CC1)OC2=CC(=C(C=C2)NC3=NC=C4C(=N3)N(C(=O)N4C)C5CCCC5)OC [AZ3146] + Nc1ncn([C@H]2C[C@H](O)[C@@H](CO)O2)c(=O)n1 [Decitabine] (partner 2 µM)
How it was run: (§1)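 One day after seeding in 1536-well plates, lung cancer cell lines were dosed by pin tool. Dosing was either single-drug or a fixed anchor-drug dose plus five library-drug doses (not always all listed) in √10 steps. After 5 days, nuclei were stained in one fix-and-stain step and counted on 4× images, and relative viability is the nuclei count of treated wells over that of vehicle wells, given as the median of duplicate plates.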

AZ3146 + Tozasertib = compound: CN1CCC(CC1)OC2=CC(=C(C=C2)NC3=NC=C4C(=N3)N(C(=O)N4C)C5CCCC5)OC [AZ3146] + Cc1cc(Nc2cc(N3CCN(C)CC3)nc(Sc3ccc(NC(=O)C4CC4)cc3)n2)n[nH]1 [Tozasertib] (partner 0.1 µM)
How it was run: as §1

GSK-J4 + Lapatinib = compound: CCOC(=O)CCNc1cc(N2CCc3ccccc3CC2)nc(-c2ccccn2)n1 [GSK-J4] + CS(=O)(=O)CCNCc1ccc(-c2ccc3ncnc(Nc4ccc(OCc5cccc(F)c5)c(Cl)c4)c3c2)o1 [Lapatinib] (partner 2 µM)
How it was run: as §1

GSK-J4 + Olaparib = compound: CCOC(=O)CCNc1cc(N2CCc3ccccc3CC2)nc(-c2ccccn2)n1 [GSK-J4] + O=C(c1cc(Cc2n[nH]c(=O)c3ccccc23)ccc1F)N1CCN(C(=O)C2CC2)CC1 [Olaparib] (partner 8 µM)
How it was run: as §1

| Cell Line | relative viability (AZ3146 + Decitabine; first compound 0.253 µM) | relative viability (AZ3146 + Decitabine; first compound 0.8 µM) | relative viability (AZ3146 + Decitabine; first compound 2.53 µM) | relative viability (AZ3146 + Decitabine; first compound 8 µM) | relative viability (AZ3146 + Tozasertib; first compound 0.08 µM) | relative viability (AZ3146 + Tozasertib; first compound 0.253 µM) | relative viability (AZ3146 + Tozasertib; first compound 0.8 µM) | relative viability (AZ3146 + Tozasertib; first compound 2.53 µM) | relative viability (AZ3146 + Tozasertib; first compound 8 µM) | relative viability (GSK-J4 + Lapatinib; first compound 0.5 µM) | relative viability (GSK-J4 + Lapatinib; first compound 1.581 µM) | relative viability (GSK-J4 + Lapatinib; first compound 5 µM) | relative viability (GSK-J4 + Lapatinib; first compound 50 µM) | relative viability (GSK-J4 + Olaparib; first compound 0.5 µM) | relative viability (GSK-J4 + Olaparib; first compound 1.581 µM) | relative viability (GSK-J4 + Olaparib; first compound 5 µM) | relative viability (GSK-J4 + Olaparib; first compound 15.81 µM) | relative viability (GSK-J4 + Olaparib; first compound 50 µM) | relative viability (AZ3146 + Decitabine; first compound 0.08 µM) | relative viability (GSK-J4 + Lapatinib; first compound 15.81 µM) |
| --- | --- | --- | --- | --- | --- | --- | --- | --- | --- | --- | --- | --- | --- | --- | --- | --- | --- | --- | --- | --- |
| HCC-78 | 0.746 | 0.623 | 0.744 | 0.728 | 0.315 | 0.449 | 0.347 | 0.404 | 0.44 | 0.707 | 0.684 | 0.846 | 0.738 | 0.688 | 0.774 | 1.1 | 0.656 | 0.742 |  |  |
| HCC-366 | 0.39 | 0.296 | 0.352 | 0.321 | 0.0936 | 0.1 | 0.0606 | 0.044 | 0.0336 | 0.969 | 0.786 |  | 0.602 | 0.362 | 0.308 |  | 0.37 | 0.285 | 0.342 | 0.937 |
| HCC-827 | 0.364 | 0.31 | 0.3 | 0.347 | 0.45 | 0.454 | 0.414 | 0.427 | 0.368 | 0.197 | 0.229 | 0.207 | 0.16 | 0.622 | 0.65 | 0.767 | 0.589 | 0.36 | 0.308 | 0.212 |
| HOP-62 | 0.195 | 0.207 | 0.248 | 0.203 | 0.325 | 0.447 | 0.345 | 0.348 | 0.291 | 0.701 | 0.689 | 0.846 | 0.86 | 0.394 | 0.333 | 0.426 | 0.491 | 0.28 | 0.22 | 1.02 |
| IA-LM |  |  |  |  |  |  |  |  |  | 0.767 | 0.598 | 0.862 | 0.0952 | 0.872 | 0.9 | 0.874 | 0.706 | 0.169 |  | 0.624 |
| LC-2-ad | 0.783 | 0.728 | 0.781 | 0.716 | 0.323 | 0.44 | 0.424 | 0.365 | 0.269 | 1.04 | 0.743 | 0.809 | 0.664 | 0.69 | 0.643 | 0.672 | 0.701 | 0.55 | 0.729 | 0.904 |
| LCLC-97TM1 | 0.254 | 0.225 | 0.222 | 0.248 | 0.206 | 0.216 | 0.208 | 0.228 | 0.146 |  |  | 1.33 | 0.885 | 0.272 | 0.373 | 0.364 | 0.293 | 0.196 | 0.209 | 0.722 |
| LCLC-103H | 0.732 | 0.742 | 0.741 | 0.729 | 0.418 | 0.523 | 0.498 | 0.45 | 0.409 |  |  |  |  | 0.8 | 0.685 | 0.776 | 0.654 | 0.646 | 0.675 |  |
| LK-2 | 0.372 | 0.284 | 0.319 | 0.337 | 0.175 | 0.186 | 0.188 | 0.157 | 0.196 | 1.04 | 0.905 | 1.12 | 0.885 | 0.675 | 0.628 | 0.98 | 0.592 | 0.364 |  | 0.646 |

Reference: the supplement of paper PMC10307832
